Test results taken from patent US20090098072A1, “ANTIOXIDANTS” (priority 2006, published 2009).

Experiment: Photoconversion test (absorption at 300 nm after solar simulator irradiation)
Type: physicochemical
Experimental: A 4% solution of the substance in isopropyl myristate is prepared. In each case, 40 μl of the solution are applied to the roughened surface of 2 acrylic glass plates (7.2×2.5 cm). One plate is subsequently irradiated in a solar simulator (Atlas CPS+) for 1 h 50 min with cooling. The sample is subsequently transferred into a 50 ml measuring cylinder and covered with 40 ml of isopropanol for extraction in the ultrasound bath. The sample volume is subsequently made up to precisely 50 ml, and the absorption is measured at 300 nm. An unirradiated batch treated analogously serves as comparison. The absorption can be increased by 22% from 0.094 (dark batch) to 0.115 by the irradiation step.

In the case of `Cc1ccc(CC2C(=O)C3(C)CCC2C3(C)C)cc1` (stereo not drawn) [Example 1, 1,7,7-trimethyl-3-(4-methylbenzyl)-bicyclo-[2.2.1]heptan-2-one], the “absorption at 300 nm, unirradiated (dark batch)” value (4% solution in isopropyl myristate, 40 μl on acrylic glass plate, extracted with isopropanol to 50 ml, not irradiated) is reported as 0.094, the “absorption at 300 nm after irradiation” value (4% solution in isopropyl myristate, 40 μl on acrylic glass plate, solar simulator (Atlas CPS+) 1 h 50 min, extracted with isopropanol to 50 ml) is reported as 0.115 and the “increase of absorption at 300 nm by the irradiation step” value (irradiated 1 h 50 min vs dark batch) is reported as 22%.
